According to article PMC12669278, “VDAC1-interacting proteins: binding site mapping and their derived peptides induce apoptosis and multifaceted cellular effects” (Apoptosis, 2025):

Biological target: purified VDAC1 (Homo sapiens, UniProt P21796)
Experiment: Glass-bound peptide array probed with purified VDAC1 and anti-VDAC1 antibodies
Type: binding
Design: key: +: low; ++: medium; +++: high
Conditions: glass-bound peptide array incubated 4 h with purified VDAC1 (64 nM), chemiluminescence; for Spot intensity, detected using anti-VDAC1 internal sequence: antibody against VDAC1 amino acids 150-250; for Spot intensity, detected using anti-N-terminus VDAC1: antibody against VDAC1 N-terminus
Method: A customized peptide array was produced by INTAVIS Peptide Services (GmbH & Co. KG, Tübingen, Germany). It comprised 768 peptide sequences derived from 19 VDAC1-interacting proteins that were arrayed on a glass slide. Each peptide was composed of 25 amino acids with an overlap of 15 amino acids with the peptides before and following it.
The interaction of purified VDAC1 with glass-bound peptide arrays was assessed by washing the slide three times, 10 min each, with TBST (150 mM NaCl, 50 mM Tris/HCl, pH 7.4, 0.1% Tween-20), followed by overnight incubation with blocking buffer (TBS, pH 7.8, containing low-fat dry milk, 2.5%, w/v) at 4 °C. Then slides were incubated with purified VDAC1 in protein-interacting buffer (20 mM HEPES, 100 mM KCl, pH,7.4, PBS) for 4 h at room temperature (RT). After washing, with TBST, slides were incubated overnight at 4 °C with anti-VDAC1 antibody against a sequence of 150–250 amino acids or against the VDAC1-N-terminus. Slides were then washed with TBST, followed by the appropriate secondary anti-HRP conjugated antibody for 2 h at RT. They were washed again with TBST and developed using enhanced chemiluminescence EZ-ECL (Biological Industries), according to the manufacturer’s instructions. The signal was captured in the dark using FUSION-FX (Vilber Lourmat) software.

Sequence of purified VDAC1 (P21796 whole entry, species assumed): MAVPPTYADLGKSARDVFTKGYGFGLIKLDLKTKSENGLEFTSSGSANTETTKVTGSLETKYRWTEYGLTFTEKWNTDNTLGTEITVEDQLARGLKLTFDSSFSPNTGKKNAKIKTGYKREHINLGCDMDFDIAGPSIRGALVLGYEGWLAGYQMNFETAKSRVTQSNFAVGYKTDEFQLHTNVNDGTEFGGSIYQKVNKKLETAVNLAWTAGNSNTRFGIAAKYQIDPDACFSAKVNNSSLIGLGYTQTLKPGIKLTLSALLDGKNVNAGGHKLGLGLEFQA

Sequence | Spot intensity, detected using anti-VDAC1 internal sequence | Spot intensity, detected using anti-N-terminus VDAC1
AAAATTVAWYQVSPLAARLLYPYLA [1H10, array peptide from TSPO] | ++ | –
AGATSSLTPSRGPVSPSVSFQPLAR [1K9, array peptide from MAVS] | – | +++
AIYDICRRNLDIERPTYTNLNRLIS [2A11, array peptide from tubulin alpha 1b] | + | +++
AKYDDIKKVVKQASEGPLKGILGYT [2C18, array peptide from GAPDH1] | ++ | +++
ALSSQHQARIEIESFYEGEDFSETL [2L3, array peptide from BiP1] | – | ++
ASIHGYLGIVELLVSLGADVNAQEP [2F17] | + | ++
AVDTDSPREVFFRVAADMFSDGNFN [1B5, array peptide from BAX] | – | +++
AVIGGSAGASPPSTLTPDSRRVARP [2D10, array peptide from Mcl-1] | – | +
DDEGMGEEPSPFRGRSRSAPPNLWA [1A10, array peptide from BAD] | – | ++
DELYRQSLEIISRYLREQATGAKDT [2D23, array peptide from Mcl-1] | + | –
DQCTGLQGFLVFHSFGGGTGSGFTS [2A2, array peptide from tubulin alpha 1b] | – | +
DQGGWGLPLAESLKRLMSLSPGRPP [1B13, array peptide from BAX] | + | +++
EDFSETLTRAKFEELNMDLFRSTMK [2L5, array peptide from BiP1] | – | +
ELEEIVQPIISKLYGSAGPPPTGEE [2M15, array peptide from BiP1] | +++ | ++
EQGVLSFWRGNLANVIRYFPTQALN [1F19, array peptide from ANT3] | + | +++
ERPLTKDNHLLGTFDLTGIPPAPRG [2L22, array peptide from BiP1] | + | ++
EVAASAILTAQLDEELGGTPVQSRV [2I10, array peptide from gelsolin isoform b] | + | –
FDGALNVDLTEFQTNLVPYPRIHFP [2A15, array peptide from tubulin alpha 1b] | ++ | –
FKDKYKQIFLGGVDKHTQFWRYFAG [1F22, array peptide from ANT3] | – | +
FPTQALNFAFKDKYKQIFLGGVDKH [1F21, array peptide from ANT3] | – | +++
FRDEGGKAFFKGAWSNVLRGMGGAF [1G17, array peptide from ANT3] | – | +

Sequence | Spot intensity, detected using anti-VDAC1 internal sequence | Spot intensity, detected using anti-N-terminus VDAC1
FRGLGDCLVKITKSDGIRGLYQGFS [1G5, array peptide from ANT3] | – | +++
FTEDELPYDDCVFGGQRLTL [2G5] | – | +
FVDWCPTGFKVGINYQPPTVVPGGD [2B2, array peptide from tubulin alpha 1b] | – | +
GGGPTSSEQIMKTGALLLQGFIQDR [1A21, array peptide from BAX] | – | +
GGVFTKLINRNTTIPTKKSQVFSTA [2O21, array peptide from HSP-70] | – | +
GKEPAHLMSLFGGKPMIIYKGGTSR [2I13, array peptide from gelsolin isoform b] | – | +
GNLANVIRYFPTQALNFAFKDKYKQ [1F20, array peptide from ANT3] | + | +++
GRTWNDPSVQQDIKFLPFKVVEKKT [2K5, array peptide from BiP1] | – | +
GTATQMRQSSSWTRVFQSWWDRNLG [1A16, array peptide from BAD] | – | ++
HSSYPAGTEDDEGMGEEPSPFRGRS [1A9, array peptide from BAD] | – | ++
HVAENPSIQLLEGNPGPPADPDGGP [1L14, array peptide from MAVS] | +++ | –
IEDFKAKKKELEEIVQPIISKLYGS [2M14, array peptide from BiP1] | ++ | ++
IEIESFYEGEDFSETLTRAKFEELN [2L4, array peptide from BiP1] | ++ | +
IFVGIKKKEERADLIAYLKKATNE [1D15, array peptide from cytochrome c] | + | ++
IKKKEERADLIAYLKKATNE [1D16, array peptide from cytochrome c] | + | ++
IMGWTLDFLRERLLGWIQDQGGWGL [1B11, array peptide from BAX] | – | +++
IMKTGALLLQGFIQDRAGRMGGEAP [1A22, array peptide from BAX] | – | +++
ISAMVLTKMKETAEAYLGKKVTHAV [2K10, array peptide from BiP1] | – | ++
ITATQKTVDGPSGKLWRDGRGALQN [2C10, array peptide from GAPDH1] | – | +
KCELSSSVQTDINLPYLTMDSSGPK [2O6, array peptide from HSP-70] | – | +
KDFLAGGIAAAISKTAVAPIERVKL [1F13, array peptide from ANT3] | – | ++

Sequence | Spot intensity, detected using anti-VDAC1 internal sequence | Spot intensity, detected using anti-N-terminus VDAC1
KFHGTVKAENGKLVINGNPITIFQE [2B20, array peptide from GAPDH1] | +++ | –
KGLPRPKSAGTATQMRQSSSWTRVF [1A15, array peptide from BAD] | – | ++
KIISNASCTTNCLAPLAKVIHDNFG [2C6, array peptide from GAPDH1] | ++ | +++
KLQMGKKLPLHLTLPQALPQYAGSG [1N5, array peptide from CD4] | – | ++
KTGPNLHGLFGRKTGQAPGYSYTAA [1D9, array peptide from cytochrome c] | – | +
KVQRAVCMLSNTTAIAEAWARLDHK [2B5, array peptide from tubulin alpha 1b] | – | +
LDIERPTYTNLNRLISQIVSSITAS [2A12, array peptide from tubulin alpha 1b] | ++ | –
LIGIPPAPRGVPQIEVTFDIDANGI [2P3, array peptide from HSP-70] | – | +
LLGTFDLTGIPPAPRGVPQIEVTFE [2L23, array peptide from BiP1] | + | +++
LVFHSFGGGTGSGFTSLLMERLSVD [2A3, array peptide from tubulin alpha 1b] | + | +++
MEVIRQVKGDLAFLNFQNNLQQTPL [2F6] | – | +
MGKVKVGVNGFGRIGRLVTRAAFNS [2B14, array peptide from GAPDH1] | – | +++
MTEQAISFAKDFLAGGIAAAISKTA [1F12, array peptide from ANT3] | – | +
MVVEHPEFLKAGKEPGLQIWRVEKF [2G8, array peptide from gelsolin isoform b] | – | +++
NGKLVINGNPITIFQERDPSKIKWG [2B21, array peptide from GAPDH1] | – | +
NMKLTRAQFEGIVTDLIRRTIAPCQ [2O9, array peptide from HSP-70] | ++ | +
PASTGAAKAVGKVIPELNGKLTGMA [2C13, array peptide from GAPDH1] | – | +
PLAESITDVLVRTKRDWLVKQRGWD [2E12, array peptide from Mcl-1] | – | ++
PYQLTWGRPSTRIQQQLGQLTLENL [2F24] | – | +++
QGCLASVGVLTQSCTTPHLHSILKA [2F13] | – | ++
QLTLENLQMLPESEDEESYDTESEF [2G2] | ++ | –
